Laboratory results taken from US9133163B2, “Dihydropyrazole GPR40 modulators” (Bristol-Myers Squibb Company, priority 2012, dated 2015).

Molecular target: hGPR40 (Homo sapiens, UniProt O14842)
Test: FDSS-based intracellular calcium assay
Format: cell-based
Set-up: 3xFLAG; expressed in transfected cells
Details: intracellular Ca2+ response, cells expressing GPR40
Procedure: FDSS-Based Intracellular Calcium Assay
Compounds are dissolved in DMSO and diluted to desired concentrations with assay buffer and added to the cells as 3× solution (20 μL per well). Run fluorescence/luminescence reader FDSS (Hamamatsu) to read intracellular Ca^2+ response.

Sequence of hGPR40 (O14842 whole entry): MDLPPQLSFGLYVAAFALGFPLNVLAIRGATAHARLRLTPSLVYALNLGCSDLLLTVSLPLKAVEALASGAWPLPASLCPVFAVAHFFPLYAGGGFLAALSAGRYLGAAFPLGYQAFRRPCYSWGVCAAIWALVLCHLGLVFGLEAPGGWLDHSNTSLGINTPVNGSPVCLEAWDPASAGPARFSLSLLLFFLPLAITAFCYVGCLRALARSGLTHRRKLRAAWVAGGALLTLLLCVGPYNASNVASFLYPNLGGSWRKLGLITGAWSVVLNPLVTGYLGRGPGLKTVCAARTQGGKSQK

| EC50 [nM] | Structure (SMILES) |
| --- | --- |
| 2040 | COc1ccc(F)c(N2CCC(Oc3ccc(N4N=C(c5ncccn5)C(C)C4CC(=O)O)cc3)CC2)c1 (single isomer, unassigned) [Example 22, Isomer 1, 2-(1-(4-((1-(2-Fluoro-5-methoxyphenyl)piperidin-4-yl)oxy)phenyl)-4-methyl-3-(pyrimidin-2-yl)-4,5-dihydro-1H-pyrazol-5-yl)acetic acid] |
| 5570 | COc1ccc(F)c(N2CCC(Oc3ccc(N4N=C(c5ncccn5)C(C)C4CC(=O)O)cc3)CC2)c1 (single isomer, unassigned) [Example 22, Isomer 2, 2-(1-(4-((1-(2-Fluoro-5-methoxyphenyl)piperidin-4-yl)oxy)phenyl)-4-methyl-3-(pyrimidin-2-yl)-4,5-dihydro-1H-pyrazol-5-yl)acetic acid] |
| 1900 | CCOc1ccc(F)c(N2CCC(Oc3ccc(N4N=C(C(F)(F)F)[C@@H](C)[C@@H]4CC(=O)O)cc3)C(C(C)C)C2)c1 (single isomer, unassigned) [Example 26 (Isomer 1)] |
| 82 | CCOc1ccc(F)c(N2CCC(Oc3ccc(N4N=C(C(F)(F)F)[C@@H](C)[C@@H]4CC(=O)O)cc3)C(C(C)C)C2)c1 (single isomer, unassigned) [Example 26 (Isomer 2)] |
| 73 | CCC1C(C(F)(F)F)=NN(c2ccc(OC3CCN(c4cc(OC)ncc4Cl)CC3C)cc2)C1CC(=O)O (single isomer, unassigned) [Example 86, Isomer 1, 2-(1-(4-((1-(5-Chloro-2-methoxypyridin-4-yl)-3-methylpiperidin-4-yl)oxy)phenyl)-4-ethyl-3-(trifluoromethyl)-4,5-dihydro-1H-pyrazol-5-yl)acetic acid] |
| 599 | CCC1C(C(F)(F)F)=NN(c2ccc(OC3CCN(c4cc(OC)ncc4Cl)CC3C)cc2)C1CC(=O)O (single isomer, unassigned) [Example 86, Isomer 2, 2-(1-(4-((1-(5-Chloro-2-methoxypyridin-4-yl)-3-methylpiperidin-4-yl)oxy)phenyl)-4-ethyl-3-(trifluoromethyl)-4,5-dihydro-1H-pyrazol-5-yl)acetic acid] |
| 1930 | CCC1C(C(F)(F)F)=NN(c2ccc(OC3CCN(c4cc(OC)ncc4Cl)CC3C)cc2)C1CC(=O)O (single isomer, unassigned) [Example 86, Isomer 3, 2-(1-(4-((1-(5-Chloro-2-methoxypyridin-4-yl)-3-methylpiperidin-4-yl)oxy)phenyl)-4-ethyl-3-(trifluoromethyl)-4,5-dihydro-1H-pyrazol-5-yl)acetic acid] |
| 7960 | COc1ccc(F)c(N2CCC(Oc3ccc(N4N=C(C(F)(F)F)[C@@H](CC(C)C)[C@@H]4CC(=O)O)cc3)CC2)c1 (single isomer, unassigned) [Example 89, Isomer 1] |
| 390 | COc1ccc(F)c(N2CCC(Oc3ccc(N4N=C(C(F)(F)F)[C@@H](CC(C)C)[C@@H]4CC(=O)O)cc3)CC2)c1 (single isomer, unassigned) [Example 89, Isomer 2] |
| 1630 | COc1ccc(F)c(N2CCC(Oc3ccc(N4N=C(C(F)(F)F)[C@@H](CC5CC5)[C@@H]4CC(=O)O)cc3)CC2)c1 (single isomer, unassigned) [Example 90, Isomer 1] |
| 156 | COc1ccc(F)c(N2CCC(Oc3ccc(N4N=C(C(F)(F)F)[C@@H](CC5CC5)[C@@H]4CC(=O)O)cc3)CC2)c1 (single isomer, unassigned) [Example 90, Isomer 2] |
| 680 | COc1ccc(C#N)c(N2CCC(Oc3ccc(N4N=C(C(F)(F)F)[C@@H](C)[C@@H]4CC(=O)O)cc3)CC2)c1 [Example 21, 2-((4S,5S)-1-(4-((1-(2-Cyano-5-methoxyphenyl)piperidin-4-yl)oxy)phenyl)-4-methyl-3-(trifluoromethyl)-4,5-dihydro-1H-pyrazol-5-yl)acetic acid] |
| 1200 | CCOc1ccc(F)c(N2CC[C@H](Oc3ccc(N4N=C(C(F)(F)F)[C@@H](C)[C@@H]4CC(=O)O)cc3)[C@@H](C)C2)c1 [Example 30, 2-((4S,5S)-1-(4-(((3S,4S)-1-(5-Ethoxy-2-fluorophenyl)-3-methylpiperidin-4-yl)oxy)phenyl)-4-methyl-3-(trifluoromethyl)-4,5-dihydro-1H-pyrazol-5-yl)acetic acid] |
| 448 | C[C@@H]1C(C(F)(F)F)=NN(c2ccc(OC3CCN(c4ccccc4Cl)CC3)cc2)[C@H]1CC(=O)O [Example 37, 2-((4S,5S)-1-(4-((1-(2-Chlorophenyl)piperidin-4-yl)oxy)phenyl)-4-methyl-3-(trifluoromethyl)-4,5-dihydro-1H-pyrazol-5-yl)acetic acid] |
| 475 | C[C@@H]1C(C(F)(F)F)=NN(c2ccc(OC3CCN(c4cc(F)ccc4F)CC3)cc2)[C@H]1CC(=O)O [Example 38, 2-((4S,5S)-1-(4-((1-(2,5-Difluorophenyl)piperidin-4-yl)oxy)phenyl)-4-methyl-3-(trifluoromethyl)-4,5-dihydro-1H-pyrazol-5-yl)acetic acid] |
| 498 | Cc1ccccc1N1CCC(Oc2ccc(N3N=C(C(F)(F)F)[C@@H](C)[C@@H]3CC(=O)O)cc2)CC1 [Example 39, 2-((4S,5S)-4-Methyl-1-(4-((1-(o-tolyl)piperidin-4-yl)oxy)phenyl)-3-(trifluoromethyl)-4,5-dihydro-1H-pyrazol-5-yl)acetic acid] |
| 628 | C[C@@H]1C(C(F)(F)F)=NN(c2ccc(OC3CCN(c4ncccc4F)CC3)cc2)[C@H]1CC(=O)O [Example 41, 2-((4S,5S)-1-(4-((1-(3-Fluoropyridin-2-yl)piperidin-4-yl)oxy)phenyl)-4-methyl-3-(trifluoromethyl)-4,5-dihydro-1H-pyrazol-5-yl)acetic acid] |

Continued, molecule first:

| Structure (SMILES) | EC50 [nM] |
| --- | --- |
| COc1cc(F)c(F)c(N2CCC(Oc3ccc(N4N=C(C(F)(F)F)[C@@H](C)[C@@H]4CC(=O)O)cc3)C(C)C2)c1 (single isomer, unassigned) [Example 8 (Isomer 1)] | 796 |
| COc1cc(F)c(F)c(N2CCC(Oc3ccc(N4N=C(C(F)(F)F)[C@@H](C)[C@@H]4CC(=O)O)cc3)C(C)C2)c1 (single isomer, unassigned) [Example 8 (Isomer 2)] | 237 |
| CCOc1cc(F)c(F)c(N2CCC(Oc3ccc(N4N=C(C(F)(F)F)[C@@H](C)[C@@H]4CC(=O)O)cc3)C(C)C2)c1 (single isomer, unassigned) [Example 10 (Isomer 1)] | 1200 |
| CCOc1cc(F)c(F)c(N2CCC(Oc3ccc(N4N=C(C(F)(F)F)[C@@H](C)[C@@H]4CC(=O)O)cc3)C(C)C2)c1 (single isomer, unassigned) [Example 10 (Isomer 2)] | 315 |
| CCOc1ccc(F)c(N2CCC(Oc3ccc(N4N=C(C(F)(F)F)[C@@H](C)[C@@H]4CC(=O)O)cc3)C(CC)C2)c1 (single isomer, unassigned) [Example 25 (Isomer 1)] | 1020 |
| COc1ccc(F)c(N2CCC(Oc3ccc(N4N=C(C(F)(F)F)[C@@H](C)[C@@H]4CC(=O)O)cc3)C(F)C2)c1 (single isomer, unassigned) [Example 57 (Isomer 1)] | 292 |
| COc1ccc(F)c(N2CCC(Oc3ccc(N4N=C(C(F)(F)F)[C@@H](C)[C@@H]4CC(=O)O)cc3)C(F)C2)c1 (single isomer, unassigned) [Example 57 (Isomer 2)] | 119 |
| COc1ccc(F)c(N2CCC(Oc3ccc(N4N=C(C(F)(F)F)[C@@H](C)[C@@H]4CC(=O)O)cc3)C(F)C2)c1 (single isomer, unassigned) [Example 57 (Isomer 3)] | 716 |
| CC[C@@H]1C(C(F)(F)F)=NN(c2ccc(OC3CCN(c4cc(OC)ccc4F)CC3)cc2)[C@H]1CC(=O)O (single isomer, unassigned) [Example 88, Isomer 2] | 7450 |
| COc1cc(N2CCC(Oc3ccc(N4N=C(C(F)(F)F)[C@@H](C)[C@@H]4CC(=O)O)cc3)C(F)C2)c(Cl)cn1 (single isomer, unassigned) [Example A1, Isomer 1] | 184 |
| COc1cc(N2CCC(Oc3ccc(N4N=C(C(F)(F)F)[C@@H](C)[C@@H]4CC(=O)O)cc3)C(F)C2)c(Cl)cn1 (single isomer, unassigned) [Example A1, Isomer 2] | 218 |
| CC(C)Oc1ccc(F)c(N2CCC(Oc3ccc(N4N=C(C(F)(F)F)[C@@H](C)[C@@H]4CC(=O)O)cc3)CC2)c1 [Example 9, 2-((4S,5S)-1-(4-((1-(2-Fluoro-5-isopropoxyphenyl)piperidin-4-yl)oxy)phenyl)-4-methyl-3-(trifluoromethyl)-4,5-dihydro-1H-pyrazol-5-yl)acetic acid] | 374 |
| CC(C)COc1cc(F)c(F)c(N2CCC(Oc3ccc(N4N=C(C(F)(F)F)[C@@H](C)[C@@H]4CC(=O)O)cc3)CC2)c1 [Example 18, 2-((4S,5S)-1-(4-((1-(2,3-Difluoro-5-isobutoxyphenyl)piperidin-4-yl)oxy)phenyl)-4-methyl-3-(trifluoromethyl)-4,5-dihydro-1H-pyrazol-5-yl)acetic acid] | 4760 |
| CCOc1ccc(F)c(N2CCC(Oc3ccc(N4N=C(C(F)(F)F)[C@@H](C)[C@@H]4CC(=O)O)cc3)CC2)c1 [Example 32, 2-((4S,5S)-1-(4-((1-(5-Ethoxy-2-fluorophenyl)piperidin-4-yl)oxy)phenyl)-4-methyl-3-(trifluoromethyl)-4,5-dihydro-1H-pyrazol-5-yl)acetic acid] | 217 |
| COc1ccc(Cl)c(N2CCC(Oc3ccc(N4N=C(C(F)(F)F)[C@@H](C)[C@@H]4CC(=O)O)cc3)CC2)c1 [Example 33, 2-((4S,5S)-1-(4-((1-(2-Chloro-5-methoxyphenyl)piperidin-4-yl)oxy)phenyl)-4-methyl-3-(trifluoromethyl)-4,5-dihydro-1H-pyrazol-5-yl)acetic acid] | 103 |
| C[C@@H]1C(C(F)(F)F)=NN(c2ccc(OC3CCN(c4cc(Cl)ccc4Cl)CC3)cc2)[C@H]1CC(=O)O [Example 35, 2-((4S,5S)-1-(4-((1-(2,5-Dichlorophenyl)piperidin-4-yl)oxy)phenyl)-4-methyl-3-(trifluoromethyl)-4,5-dihydro-1H-pyrazol-5-yl)acetic acid] | 254 |
